Reference: PMC7529935 (European journal of medicinal chemistry, 2020)

Legend:
[1] = test system: HIV/EBOV pseudovirions (EBOV GP); format: cell-based, Zaire Ebolavirus
[2] = test system: HIV/MARV pseudovirions (MARV GP); assay: microbe, parasite or virus in culture; format: cell-based, Marburgvirus; settings: Human immunodeficiency virus 1, A549, 48 h, read-out: IC50 for MARV

| SMILES | antiviral activity against EBOV [1] | antiviral activity (anti-filovirus, words) [1] | IC50 [2] [nM] | cytotoxicity (A549 cells) |
| --- | --- | --- | --- | --- |
| Cc1c(Cc2ccccc2)c(=O)oc2cc(OCC(O)CNCCc3ccncc3)ccc12 (centres unmarked) [Compound 13, 3-benzyl-7-(2-hydroxy-3-((2-(pyridin-4-yl)ethyl)amino)propoxy)-4-methyl-2H-chromen-2-one] | best inhibitory activity on EBOV entry | – | – | – |
| Cc1cc(=O)oc2cc(OCC(O)CN3CCC(C(N)=O)CC3)ccc12 (centres unmarked) [Compound 19, 1-(2-hydroxy-3-((4-methyl-2-oxo-2H-chromen-7-yl)oxy)propyl)piperidine-4-carboxamide] | – | lost most of the activity | – | – |
| Cc1c(Cc2ccc(OC(F)(F)F)cc2)c(=O)oc2cc(OCC(O)CN3CCC(C(N)=O)CC3)ccc12 (centres unmarked) [Compound 32, 1-(2-hydroxy-3-((4-methyl-2-oxo-3-(4-(trifluoromethoxy)benzyl)-2H-chromen-7-yl)oxy)propyl)piperidine-4-carboxamide] | strongest antiviral activity against EBOV | – | 1500 | low cytotoxicity |
| NC(=O)C1CCN(CC(O)COc2ccc3c(C4CC4)cc(=O)oc3c2)CC1 (centres unmarked) [Compound 55, 1-(3-((4-cyclopropyl-2-oxo-2H-chromen-7-yl)oxy)-2-hydroxypropyl)piperidine-4-carboxamide] | – | lost most of the antiviral activity | – | – |
| Cc1c(Cc2ccc(OC(F)(F)F)cc2)c(=O)oc2cc(OCC(O)CNc3nccs3)ccc12 (centres unmarked) [Compound 56, 7-(2-hydroxy-3-(thiazol-2-ylamino)propoxy)-4-methyl-3-(4-(trifluoromethoxy)benzyl)-2H-chromen-2-one] | – | strong activity | – | low cytotoxicity |
